Legend:
[1] = cited from earlier work; for specific absorbance at the absorbance maximum (ε): MeOH
[2] = UV absorption maximum of product; assay type: physicochemical
Description: 20 g of (E)-3-(2,4,5-trimethoxyphenyl)acrylic acid (84 mmol; 1 eq.) are dissolved in 100 ml of dimethylformamide in an argon-flushed three-necked flask, and 11.1 g of diisopropylcarbodiimide (88.1 mmol, 1.05 eq.) are added. After 30 min, ascorbic acid (22.2 g, 126 mmol; 1.5 eq.) dissolved in 45 ml of dimethylformamide is added dropwise. After 30 min at 0° C., the mixture is stirred at room temperature for a further 6 hours. The reaction solution is evaporated to dryness, suspended in ethyl acetate/hexane 1:1 and filtered, and the product is precipitated as a pale-yellow solid by addition of hexane (λmax=354 nm).

SMILES	specific absorbance at the absorbance maximum (ε) [1]	λmax(MeOH) [1]	λmax [2]
CCCCC(CC)COC(=O)/C=C/c1ccc(OC)cc1 (stereo not drawn) [trans-EHMC]	24,550	309 nm	
CCCCC(CC)COC(=O)/C=C\c1ccc(OC)cc1 (stereo not drawn) [cis-EHMC]	13,500	304 nm	
COc1cc(OC)c(OC)cc1/C=C/C(=O)OC[C@@H](O)[C@H]1OC(=O)C(O)=C1O [Example 4, (R)-2-((R)-3,4-dihydroxy-5-oxo-2,5-dihydrofuran-2-yl)-2-hydroxyethyl (E)-3-(2,4,5-trimethoxyphenyl)acrylate]			354 nm
